{"source": "PubChem BioAssay AID1259407", "about": "(Chemical Carcinogenesis Research Information System (CCRIS), 2018)", "test_system": "CCRIS mutagenicity, Ames/micronucleus/aberration tests", "assay": "CCRIS mutagenicity studies", "key": {"[1]": {"conditions": "Test System: AMES SALMONELLA TYPHIMURIUM, Strain/Indicator: TA98, Metabolic Activation: HAMSTER, LIVER, S-9, AROCLOR 1254 (10%), Method: PREINCUBATION"}, "[2]": {"conditions": "Test System: AMES SALMONELLA TYPHIMURIUM, Strain/Indicator: TA98, Metabolic Activation: NONE, Method: PREINCUBATION"}, "[3]": {"conditions": "Test System: AMES SALMONELLA TYPHIMURIUM, Strain/Indicator: TA98, Metabolic Activation: RAT, LIVER, S-9, AROCLOR 1254 (10%), Method: PREINCUBATION"}, "[4]": {"conditions": "Test System: AMES SALMONELLA TYPHIMURIUM, Strain/Indicator: TA100, Metabolic Activation: HAMSTER, LIVER, S-9, AROCLOR 1254 (10%), Method: PREINCUBATION"}, "[5]": {"conditions": "Test System: AMES SALMONELLA TYPHIMURIUM, Strain/Indicator: TA100, Metabolic Activation: NONE, Method: PREINCUBATION"}, "[6]": {"conditions": "Test System: AMES SALMONELLA TYPHIMURIUM, Strain/Indicator: TA100, Metabolic Activation: RAT, LIVER, S-9, AROCLOR 1254 (10%), Method: PREINCUBATION"}, "[7]": {"conditions": "Test System: AMES SALMONELLA TYPHIMURIUM, Strain/Indicator: TA1535, Metabolic Activation: HAMSTER, LIVER, S-9, AROCLOR 1254 (10%), Method: PREINCUBATION"}, "[8]": {"conditions": "Test System: AMES SALMONELLA TYPHIMURIUM, Strain/Indicator: TA1535, Metabolic Activation: NONE, Method: PREINCUBATION"}, "[9]": {"conditions": "Test System: AMES SALMONELLA TYPHIMURIUM, Strain/Indicator: TA1535, Metabolic Activation: RAT, LIVER, S-9, AROCLOR 1254 (10%), Method: PREINCUBATION"}, "[10]": {"conditions": "Test System: AMES SALMONELLA TYPHIMURIUM, Strain/Indicator: TA98, Metabolic Activation: NONE, Method: STANDARD PLATE"}, "[11]": {"conditions": "Test System: AMES SALMONELLA TYPHIMURIUM, Strain/Indicator: TA100, Metabolic Activation: NONE, Method: STANDARD PLATE"}}, "note": "Calls of active or inactive are those of the source. How the calls were made is not given here."}
{"compound": "CC(C)(C)N", "values": [{"measurement": "mutagenic call", "setting": "[1]", "result": "inactive; negative"}, {"measurement": "mutagenic call", "setting": "[2]", "result": "inactive; negative"}, {"measurement": "mutagenic call", "setting": "Test System: AMES SALMONELLA TYPHIMURIUM, Strain/Indicator: TA98, Metabolic Activation: RAT LIVER S-9, PHENOBARBITAL AND BETA-NAPHTHOFLAVONE, Method: PREINCUBATION", "result": "inactive; negative"}, {"measurement": "mutagenic call", "setting": "[3]", "result": "inactive; negative"}, {"measurement": "mutagenic call", "setting": "[4]", "result": "inactive; negative"}, {"measurement": "mutagenic call", "setting": "[5]", "result": "inactive; negative"}, {"measurement": "mutagenic call", "setting": "Test System: AMES SALMONELLA TYPHIMURIUM, Strain/Indicator: TA100, Metabolic Activation: RAT LIVER S-9, PHENOBARBITAL AND BETA-NAPHTHOFLAVONE, Method: PREINCUBATION", "result": "inactive; negative"}, {"measurement": "mutagenic call", "setting": "[6]", "result": "inactive; negative"}, {"measurement": "mutagenic call", "setting": "[7]", "result": "inactive; negative"}, {"measurement": "mutagenic call", "setting": "[8]", "result": "inactive; negative"}, {"measurement": "mutagenic call", "setting": "Test System: AMES SALMONELLA TYPHIMURIUM, Strain/Indicator: TA1535, Metabolic Activation: RAT LIVER S-9, PHENOBARBITAL AND BETA-NAPHTHOFLAVONE, Method: PREINCUBATION", "result": "inactive; negative"}, {"measurement": "mutagenic call", "setting": "[9]", "result": "inactive; negative"}, {"measurement": "mutagenic call", "setting": "Test System: AMES SALMONELLA TYPHIMURIUM, Strain/Indicator: TA1537, Metabolic Activation: HAMSTER, LIVER, S-9, AROCLOR 1254 (10%), Method: PREINCUBATION", "result": "inactive; negative"}, {"measurement": "mutagenic call", "setting": "Test System: AMES SALMONELLA TYPHIMURIUM, Strain/Indicator: TA1537, Metabolic Activation: NONE, Method: PREINCUBATION", "result": "inactive; negative"}, {"measurement": "mutagenic call", "setting": "Test System: AMES SALMONELLA TYPHIMURIUM, Strain/Indicator: TA1537, Metabolic Activation: RAT LIVER S-9, PHENOBARBITAL AND BETA-NAPHTHOFLAVONE, Method: PREINCUBATION", "result": "inactive; negative"}, {"measurement": "mutagenic call", "setting": "Test System: AMES SALMONELLA TYPHIMURIUM, Strain/Indicator: TA1537, Metabolic Activation: RAT, LIVER, S-9, AROCLOR 1254 (10%), Method: PREINCUBATION", "result": "inactive; negative"}, {"measurement": "mutagenic call", "setting": "Test System: E.COLI, Strain/Indicator: WP2UVRA/PKM101, Metabolic Activation: NONE, Method: PREINCUBATION", "result": "inactive; negative"}, {"measurement": "mutagenic call", "setting": "Test System: E.COLI, Strain/Indicator: WP2UVRA/PKM101, Metabolic Activation: RAT LIVER S-9, PHENOBARBITAL AND BETA-NAPHTHOFLAVONE, Method: PREINCUBATION", "result": "inactive; negative"}]}
{"compound": "CCNc1cccc(O)c1", "values": [{"measurement": "mutagenic call", "setting": "Test System: AMES SALMONELLA TYPHIMURIUM, Strain/Indicator: TA97, Metabolic Activation: HAMSTER, LIVER, S-9, AROCLOR 1254 (10%), Method: PREINCUBATION", "result": "inactive; negative"}, {"measurement": "mutagenic call", "setting": "Test System: AMES SALMONELLA TYPHIMURIUM, Strain/Indicator: TA97, Metabolic Activation: NONE, Method: PREINCUBATION", "result": "inactive; negative"}, {"measurement": "mutagenic call", "setting": "Test System: AMES SALMONELLA TYPHIMURIUM, Strain/Indicator: TA97, Metabolic Activation: RAT, LIVER, S-9, AROCLOR 1254 (10%), Method: PREINCUBATION", "result": "inactive; negative"}, {"measurement": "mutagenic call", "setting": "[1]", "result": "active; positive"}, {"measurement": "mutagenic call", "setting": "[2]", "result": "inactive; negative"}, {"measurement": "mutagenic call", "setting": "[3]", "result": "active; positive"}, {"measurement": "mutagenic call", "setting": "[4]", "result": "inactive; negative"}, {"measurement": "mutagenic call", "setting": "[5]", "result": "inactive; negative"}, {"measurement": "mutagenic call", "setting": "[6]", "result": "inactive; negative"}, {"measurement": "mutagenic call", "setting": "[7]", "result": "inactive; negative"}, {"measurement": "mutagenic call", "setting": "[8]", "result": "inactive; negative"}, {"measurement": "mutagenic call", "setting": "[9]", "result": "inactive; negative"}]}
{"compound": "O=NN(CCCl)C(=O)NC1CCCCC1", "values": [{"measurement": "mutagenic call", "setting": "End Point: IN VITRO CHROMOSOMAL ABERRATIONS, Test System: HUMAN HCT116/3-6 CELLS, Metabolic Activation: NONE", "result": "active; positive"}, {"measurement": "mutagenic call", "setting": "End Point: IN VITRO CHROMOSOMAL ABERRATIONS, Test System: HUMAN HCT116 CELLS, Metabolic Activation: NONE", "result": "active; positive"}, {"measurement": "mutagenic call", "setting": "End Point: IN VITRO CHROMOSOMAL ABERRATIONS, Test System: HUMAN MT1 CELLS, Metabolic Activation: NONE", "result": "active; positive"}, {"measurement": "mutagenic call", "setting": "End Point: IN VITRO CHROMOSOMAL ABERRATIONS, Test System: HUMAN TK6 CELLS, Metabolic Activation: NONE", "result": "active; positive"}, {"measurement": "mutagenic call", "setting": "Test System: AMES SALMONELLA TYPHIMURIUM, Strain/Indicator: TA97, Metabolic Activation: NONE, Method: STANDARD PLATE", "result": "inactive; negative"}, {"measurement": "mutagenic call", "setting": "Test System: AMES SALMONELLA TYPHIMURIUM, Strain/Indicator: TA97, Metabolic Activation: RAT, LIVER, S-9, PHENOBARBITAL AND ALPHA-NAPHTHOFLAVONE, Method: STANDARD PLATE", "result": "inactive; negative"}, {"measurement": "mutagenic call", "setting": "[2]", "result": "inactive; negative"}, {"measurement": "mutagenic call", "setting": "[10]", "result": "inactive; negative"}, {"measurement": "mutagenic call", "setting": "Test System: AMES SALMONELLA TYPHIMURIUM, Strain/Indicator: TA98, Metabolic Activation: RAT, LIVER, S-9, PHENOBARBITAL AND ALPHA-NAPHTHOFLAVONE, Method: STANDARD PLATE", "result": "inactive; negative"}, {"measurement": "mutagenic call", "setting": "Test System: AMES SALMONELLA TYPHIMURIUM, Strain/Indicator: TA98, Metabolic Activation: S-9, Method: PREINCUBATION", "result": "inactive; negative"}, {"measurement": "mutagenic call", "setting": "[5]", "result": "active; positive"}, {"measurement": "mutagenic call", "setting": "[11]", "result": "active; positive"}, {"measurement": "mutagenic call", "setting": "Test System: AMES SALMONELLA TYPHIMURIUM, Strain/Indicator: TA100, Metabolic Activation: RAT, LIVER, S-9, PHENOBARBITAL AND ALPHA-NAPHTHOFLAVONE, Method: STANDARD PLATE", "result": "active; positive"}, {"measurement": "mutagenic call", "setting": "Test System: AMES SALMONELLA TYPHIMURIUM, Strain/Indicator: TA100, Metabolic Activation: S-9, Method: PREINCUBATION", "result": "active; positive"}, {"measurement": "mutagenic call", "setting": "Test System: AMES SALMONELLA TYPHIMURIUM, Strain/Indicator: TA1535, Metabolic Activation: NONE, Method: STANDARD PLATE", "result": "active; positive"}, {"measurement": "mutagenic call", "setting": "Test System: AMES SALMONELLA TYPHIMURIUM, Strain/Indicator: TA1535, Metabolic Activation: RAT, LIVER, S-9, PHENOBARBITAL AND ALPHA-NAPHTHOFLAVONE, Method: STANDARD PLATE", "result": "active; positive"}, {"measurement": "mutagenic call", "setting": "Test System: CHINESE HAMSTER V-79, Strain/Indicator: V-79/6-THIOGUANINE, Metabolic Activation: NONE, Method: STANDARD PLATE", "result": "active; positive"}]}
{"compound": "CC(=O)O[C@H]1[C@@H]2CC(C)(C)CC2=C(C=O)[C@]2(C=O)C[C@]12C", "values": [{"measurement": "mutagenic call", "setting": "[10]", "result": "inactive; negative"}, {"measurement": "mutagenic call", "setting": "[11]", "result": "inactive; negative"}, {"measurement": "mutagenic call", "setting": "Test System: AMES SALMONELLA TYPHIMURIUM, Strain/Indicator: TA2637, Metabolic Activation: NONE, Method: STANDARD PLATE", "result": "inactive; negative"}]}
{"compound": "CC(C)(Oc1ccc(C2CCCc3ccccc32)cc1)C(=O)O", "note": "(configuration not stated)", "values": [{"measurement": "mutagenic call", "setting": "Test System: AMES SALMONELLA TYPHIMURIUM, Strain/Indicator: TA98, Metabolic Activation: NONE", "result": "inactive; negative"}, {"measurement": "mutagenic call", "setting": "Test System: AMES SALMONELLA TYPHIMURIUM, Strain/Indicator: TA98, Metabolic Activation: RAT, LIVER, S-9, AROCLOR 1254", "result": "inactive; negative"}, {"measurement": "mutagenic call", "setting": "Test System: AMES SALMONELLA TYPHIMURIUM, Strain/Indicator: TA102, Metabolic Activation: NONE", "result": "inactive; negative"}, {"measurement": "mutagenic call", "setting": "Test System: AMES SALMONELLA TYPHIMURIUM, Strain/Indicator: TA102, Metabolic Activation: RAT, LIVER, S-9, AROCLOR 1254", "result": "inactive; negative"}, {"measurement": "mutagenic call", "setting": "Test System: AMES SALMONELLA TYPHIMURIUM, Strain/Indicator: TA104, Metabolic Activation: NONE", "result": "inactive; negative"}, {"measurement": "mutagenic call", "setting": "Test System: AMES SALMONELLA TYPHIMURIUM, Strain/Indicator: TA104, Metabolic Activation: RAT, LIVER, S-9, AROCLOR 1254", "result": "inactive; negative"}, {"measurement": "mutagenic call", "setting": "Test System: UDS RAT HEPATOCYTES, Strain/Indicator: THY INCORP, Metabolic Activation: NONE, Method: LIQUID SCINTILLATION COUNTING", "result": "inactive; negative"}]}
